Values after ≈ are worked out from the molar mass of the structure shown. Where a name gives a salt, the structure may show the parent alone. Read-outs that look alike come from different tables or passages of the source. Each block holds one molecule with its values, some of them ahead of it.
Assays:
[1] = target: Leucyl-tRNA synthetase (LeuRS) (Escherichia coli (strain K12), UniProt P07813); experiment: Leucyl-tRNA synthetase enzyme inhibition (AMP-Glo; single point % inhibition at 100 μM and IC50); format: biochemical
From the text: Study 1—Enzyme Inhibition
The aminoacylation reaction catalyzed by aminoacyl-tRNA synthetases (aaRS) takes place in two steps. In the first step, aaRS activates its cognate amino acid with ATP; and in the second step the activated amino acid is loaded to its corresponding tRNA. This reaction can be summarized as follows: aaRS+aa+ATP=aaRS-aa-AMP+PPi aaRS-aa-AMP+tRNA=aa-tRNA+AMP+aaRS
wherein: aaRS, aminoacyl-tRNA synthetase; aa, amino acid; aaRS-aa-AMP, enzyme-bound to aminoacyl-adenylate; AMP, adenosine monophosphate; aa-tRNA, aminoacyl-tRNA, PPi, inorganic pyrophosphate.
a. Single Point Percentage Inhibition
The activity of the pathogenic aaRSs was monitored by measuring AMP production using the commercial kit AMP-Glo (Promega, Madison, USA).
Ligand stock solutions were prepared in 100% DMSO at 10 mM concentration. An assay buffer consisting of 100 mM Tris HCl pH 7.6, 40 mM MgCl, 20 mM KCl and 150 mM NaCl was prepared in dH2O.
Using the same enzymatic assay in a 384-well plate format, ten point concentration response curves were generated for each compound using a top concentration of 10 μM. The known inhibitor LeuAMS was used as a positive control for the LeuRS assay. 100% DMSO was used as a negative control. The IC50 was calculated based on non-linear regression analysis.

[2] = system: bacteria (ATCC reference strains); experiment: Antibacterial activity, MIC by broth micro-dilution (CLSI)
[3] = Acinetobacter baumannii, read-out: Antibacterial Activity (MIC), E = A. baumannii B1931
[4] = Enterobacter cloacae, read-out: Antibacterial Activity (MIC), B = Enterobacter cloacae B1966
[5] = Escherichia coli, ATCC25922, read-out: Antibacterial Activity (MIC), A = E. coli ATCC 25922
[6] = Escherichia coli, BAA2469, read-out: Antibacterial Activity (MIC), G = E. coli BAA-2469
[7] = Klebsiella pneumoniae, ATCC700603, read-out: Antibacterial Activity (MIC), C = K. pneumoniae ATCC 700603
[8] = Pseudomonas aeruginosa, ATCC27853, read-out: Antibacterial Activity (MIC), D = P. aeruginosa ATCC 27853
[9] = E. coli LeuRS, read-out: Enzyme Inhibition - IC50, E. coli LeuRS

Chain of Leucyl-tRNA synthetase (LeuRS) (P07813 whole entry, looked up): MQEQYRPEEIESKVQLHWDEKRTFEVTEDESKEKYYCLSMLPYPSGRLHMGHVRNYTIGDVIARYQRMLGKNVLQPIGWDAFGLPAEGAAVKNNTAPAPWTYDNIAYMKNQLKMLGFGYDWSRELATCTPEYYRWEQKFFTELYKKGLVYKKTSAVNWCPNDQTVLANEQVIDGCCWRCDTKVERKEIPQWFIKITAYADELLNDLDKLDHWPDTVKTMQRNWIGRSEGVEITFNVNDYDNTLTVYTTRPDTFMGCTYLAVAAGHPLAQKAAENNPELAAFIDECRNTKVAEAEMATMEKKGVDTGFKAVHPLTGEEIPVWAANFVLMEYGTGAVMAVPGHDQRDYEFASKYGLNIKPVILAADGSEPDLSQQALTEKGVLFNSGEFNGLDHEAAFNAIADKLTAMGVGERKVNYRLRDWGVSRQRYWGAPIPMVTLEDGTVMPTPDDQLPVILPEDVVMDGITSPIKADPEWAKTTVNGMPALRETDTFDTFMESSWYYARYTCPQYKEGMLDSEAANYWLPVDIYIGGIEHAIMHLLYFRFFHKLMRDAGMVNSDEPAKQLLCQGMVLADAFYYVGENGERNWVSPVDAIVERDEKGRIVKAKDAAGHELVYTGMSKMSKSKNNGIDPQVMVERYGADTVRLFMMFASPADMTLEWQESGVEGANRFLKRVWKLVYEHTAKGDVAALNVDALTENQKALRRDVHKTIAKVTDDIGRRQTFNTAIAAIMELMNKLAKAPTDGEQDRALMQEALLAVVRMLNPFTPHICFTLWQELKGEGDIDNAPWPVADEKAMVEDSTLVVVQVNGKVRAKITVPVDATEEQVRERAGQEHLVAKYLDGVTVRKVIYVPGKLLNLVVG

SMILES: CC(C)C[C@H](N)C(=O)N=S(N)(=O)c1nc(Cl)cs1 (mixture of isomers) [ANASIA-045]
IC50 [1]: 5.52 µM

SMILES: CC(C)C[C@H](N)C(=O)N=[S@](N)(=O)c1cccs1.Cl (single isomer, unassigned) [ANASIA-007-1]
MIC [2, 3]: 8 mg/L | MIC [2, 4]: 8 mg/L | MIC [2, 5]: 1 mg/L | MIC [2, 6]: 5.04 mg/L | MIC ([2]; Haemophilus influenzae, ATCC49247, read-out: Antibacterial Activity (MIC), F = H. influenzae ATCC 49247): 2 mg/L | MIC [2, 7]: 8 mg/L | MIC [2, 8]: 16 mg/L

MIC [2, 3]: 32 mg/L (≈ 116 µM) | MIC [2, 4]: > 64 mg/L | MIC [2, 5]: 4 mg/L (≈ 14.5 µM) | MIC [2, 6]: 64 mg/L (≈ 232 µM) | MIC [2, 7]: > 64 mg/L | MIC [2, 8]: 64 mg/L (≈ 232 µM)
SMILES: Cc1csc([S@@](N)(=O)=NC[C@@H](N)CC(C)C)n1 [ANASIA-004-1]

SMILES: CN[S@@](=O)(=NC(=O)[C@@H](N)CC(C)C)c1ccccc1 [ANASIA-010-1, (S)-2-amino-4-methyl-N—((S)-(methylamino)(oxo)(phenyl)-λ6-sulfanylidene)pentanamide]
IC50 [1]: 9.15 µM

SMILES: CC(C)C[C@H](N)C(=O)N=[S@@](N)(=O)c1cccc(Br)c1 [ANASIA-044-2]
IC50 [1, 9]: 2.16 µM

MIC [2, 3]: 64 mg/L | MIC [2, 4]: > 64 mg/L | MIC [2, 5]: 4 mg/L | MIC [2, 6]: 45.3 mg/L | MIC [2, 7]: > 64 mg/L | MIC [2, 8]: > 64 mg/L
SMILES: CC(C)C[C@H](N)C(=O)N=[S@](N)(=O)c1nc(Cl)cs1.Cl [ANASIA-045-1]

SMILES: CC(C)C[C@H](N)C(=O)N=S(N)(=O)c1ccc2c(c1)CCO2 (stereo partly drawn) [ANASIA-048]
IC50 [1, 9]: 6.53 µM

SMILES: CC(C)C[C@H](N)C(=O)N=[S@@](N)(=O)c1cccc(C(C)(C)C)c1 [ANASIA-049-2]
IC50 [1, 9]: 2.63 µM

SMILES: N[C@@H](CC1CC1)C(=O)N=[S@](N)(=O)c1ccccc1 [ANASIA-050-1]
IC50 [1]: 4.33 µM

SMILES: CC(C)C[C@H](N)C(=O)N=S(N)(=O)c1ccncc1 (stereo partly drawn) [ANASIA-059-1, (2S)-2-amino-N-(amino(oxo)(pyridin-4-yl)-λ^6-sulfanylidene)-4-methylpentanamide]
inhibition at 10 µM ([1]; read-out: Enzyme inhibition, E. coli LeuRS, % at 10 μM): 46%

SMILES: CC(C)C[C@H](N)C(=O)N=[S@@](N)(=O)c1cc(F)cs1 [ANASIA-062-2]
IC50 [1, 9]: 0.715 µM

SMILES: CC(C)C[C@H](N)C(=O)N=S(N)(=O)c1cc(C#N)ccc1F (stereo partly drawn) [ANASIA-065]
IC50 [1, 9]: 0.67 µM

SMILES: CC(C)C[C@H](N)C(=O)N=[S@](N)(=O)c1cc(-c2ccccc2)cs1 [ANASIA-067-1]
IC50 [1]: 1.92 µM

SMILES: CC(C)C[C@H](N)C(=O)N=S(N)(=O)c1ccn(C)n1 (stereo partly drawn) [ANASIA-073]
IC50 [1]: 0.238 µM

SMILES: CC(C)C[C@H](N)C(=O)N=[S@@](N)(=O)c1ccccn1 [ANASIA-075-2]
IC50 [1, 9]: 2.54 µM

SMILES: CC(C)C[C@H](N)C(=O)N=S(N)(=O)c1sc(Cl)nc1Cl (stereo partly drawn) [ANASIA-076]
IC50 [1, 9]: 2.26 µM

SMILES: CC(C)C[C@H](N)C(=O)N=[S@@](N)(=O)c1scc(Cl)c1Cl [ANASIA-081-2]
IC50 [1, 9]: 0.488 µM

SMILES: CC(C)C[C@H](N)C(=O)N=S(N)(=O)c1cc2sccc2s1 (stereo partly drawn) [ANASIA-082]
IC50 [1, 9]: 0.449 µM

SMILES: CC(C)C[C@H](N)C(=O)N=[S@@](N)(=O)c1csc2ccccc12 [ANASIA-083-2]
IC50 [1, 9]: 2.3 µM

SMILES: C=CCc1cccc(S(N)(=O)=NC(=O)[C@@H](N)CC(C)C)c1 (stereo partly drawn) [ANASIA-085, (2S)—N-((3-allylphenyl)(amino)(oxo)-λ6-sulfanylidene)-2-amino-4-methylpentanamide hydrochloride]
IC50 [1, 9]: 0.594 µM

SMILES: Cc1ccccc1[S@@](N)(=O)=NC(=O)[C@@H](N)CC(C)C [ANASIA-086-1]
IC50 [1]: 3.33 µM

SMILES: CC(C)C[C@H](N)C(=O)N=[S@](N)(=O)c1ccccc1F [ANASIA-087-2]
IC50 [1, 9]: 4.92 µM

SMILES: CC(C)C[C@H](N)C(=O)N=[S@@](N)(=O)c1cccc(OC(F)F)c1 [ANASIA-088-2]
IC50 [1, 9]: 1.56 µM

SMILES: CC(C)C[C@H](N)C(=O)N=[S@@](N)(=O)c1cccc(C(F)(F)F)c1 [ANASIA-089-2]
IC50 [1]: 2.39 µM

SMILES: CC(C)C[C@H](N)C(=O)N=S(N)(=O)c1cccc(OC(F)(F)F)c1 (stereo partly drawn) [ANASIA-090]
IC50 [1, 9]: 0.199 µM

SMILES: Cc1sccc1[S@](N)(=O)=NC(=O)[C@@H](N)CC(C)C [ANASIA-091-2]
IC50 [1, 9]: 8.15 µM

Reference: patent publication US12247004B2, “2-amino-N-(amino-oxo-aryl-lambda6-sulfanylidene)acetamide compounds and their therapeutic use” (Oxford Drug Design Limited, priority 2019, dated 2025)
